Calls of active or inactive are those of the source. No cut-off for these calls is given here.
Key:
BT-474 [1] = assay: Cytotoxicity against human BT474 cells assessed as cell viability at 100 uM after 3 days by MTT assay relative to control; format: functional; settings: for viability at 100 µM: BT-474, 72 h, read-out: Activity
ChaGo = assay: (§1) Cytotoxicity against human ChaGo cells assessed as cell viability at 100 uM after 3 days by MTT assay relative to control; format: functional
SW-620 [2] = assay: Cytotoxicity against human SW620 cells assessed as cell viability at 100 uM after 3 days by MTT assay relative to control; format: functional; settings: for viability at 100 µM: SW-620, 72 h, read-out: Activity
HepG2 [3] = assay: Cytotoxicity against human HepG2 cells assessed as cell viability at 100 uM after 3 days by MTT assay relative to control; format: functional; settings: for viability at 100 µM: HepG2, 72 h, read-out: Activity
KATO III cell = assay: (§2) Cytotoxicity against human KATO III cells assessed as cell viability at 100 uM after 3 days by MTT assay relative to control; format: functional
Ca-Ski = assay: (§3) Cytotoxicity against human CaSki cells assessed as cell viability at 100 uM after 3 days by MTT assay relative to control; format: functional
BT-474 [4] = assay: Cytotoxicity against human BT474 cells after 3 days by MTT assay; format: functional, cell-based; settings: BT-474, 72 h
[5] = Cytotoxicity against human ChaGo cells after 3 days by MTT assay; format: functional, cell-based; settings: 72 h
SW-620 [6] = assay: Cytotoxicity against human SW620 cells after 3 days by MTT assay; format: functional, cell-based; settings: SW-620, 72 h
HepG2 [7] = assay: Cytotoxicity against human HepG2 cells after 3 days by MTT assay; format: functional, cell-based; settings: HepG2, 72 h
[8] = Cytotoxicity against human KATO III cells after 3 days by MTT assay; format: functional, cell-based, KATO III cell; settings: 72 h
[9] = Cytotoxicity against human CaSki cells after 3 days by MTT assay; format: functional, cell-based; settings: Ca-Ski, 72 h
WI-38 = assay: Cytotoxicity against human WI38 cells at 1 to 60 uM after 3 days by MTT assay; format: cell-based; settings: wi-38, 72 h
Calf thymus DNA [10] = assay: Binding affinity to calf thymus DNA assessed as melting temperature at 30 uM by thermal denaturation assay; format: nucleic-acid assay; settings: Bos taurus
Calf thymus DNA [11] = assay: Binding affinity to calf thymus DNA assessed as change in melting temperature at 30 uM by thermal denaturation assay; format: nucleic-acid assay; settings: Bos taurus
[12] = molecular target: DNA topoisomerase 2-alpha (Homo sapiens) (UniProt P11388); assay: Inhibition of human DNA topoisomerase-2-mediated decatenation of kinetoplast DNA at 100 uM after 1 hr by electrophoretic analysis relative to control
[13] = as §1; format: functional; settings: 72 h, read-out: Activity
[14] = as §3; format: functional; settings: Ca-Ski, 72 h, read-out: Activity
Bos taurus [15] = organism: Bos taurus; assay: Displacement of ethidium bromide from calf thymus DNA by Stern-Volmer plot analysis
[16] = as §2; format: functional; settings: 72 h, read-out: Activity
Bos taurus [17] = organism: Bos taurus; assay: Displacement of ethidium bromide from calf thymus DNA by fluorescence spectroscopic analysis
[18] = molecular target: DNA topoisomerase 2-alpha (Homo sapiens) (UniProt P11388); assay: Inhibition of human DNA topoisomerase-2-mediated decatenation of kinetoplast DNA at 10 uM after 1 hr by electrophoretic analysis relative to control
[19] = molecular target: DNA topoisomerase 2-alpha (Homo sapiens) (UniProt P11388); assay: Inhibition of human DNA topoisomerase-2-mediated decatenation of kinetoplast DNA at 30 uM after 1 hr by electrophoretic analysis relative to control
[20] = molecular target: DNA topoisomerase 2-alpha (Homo sapiens) (UniProt P11388); assay: Inhibition of human DNA topoisomerase-2-mediated decatenation of kinetoplast DNA at 50 uM after 1 hr by electrophoretic analysis relative to control

Chain of DNA topoisomerase 2-alpha (Homo sapiens) (P11388 whole entry): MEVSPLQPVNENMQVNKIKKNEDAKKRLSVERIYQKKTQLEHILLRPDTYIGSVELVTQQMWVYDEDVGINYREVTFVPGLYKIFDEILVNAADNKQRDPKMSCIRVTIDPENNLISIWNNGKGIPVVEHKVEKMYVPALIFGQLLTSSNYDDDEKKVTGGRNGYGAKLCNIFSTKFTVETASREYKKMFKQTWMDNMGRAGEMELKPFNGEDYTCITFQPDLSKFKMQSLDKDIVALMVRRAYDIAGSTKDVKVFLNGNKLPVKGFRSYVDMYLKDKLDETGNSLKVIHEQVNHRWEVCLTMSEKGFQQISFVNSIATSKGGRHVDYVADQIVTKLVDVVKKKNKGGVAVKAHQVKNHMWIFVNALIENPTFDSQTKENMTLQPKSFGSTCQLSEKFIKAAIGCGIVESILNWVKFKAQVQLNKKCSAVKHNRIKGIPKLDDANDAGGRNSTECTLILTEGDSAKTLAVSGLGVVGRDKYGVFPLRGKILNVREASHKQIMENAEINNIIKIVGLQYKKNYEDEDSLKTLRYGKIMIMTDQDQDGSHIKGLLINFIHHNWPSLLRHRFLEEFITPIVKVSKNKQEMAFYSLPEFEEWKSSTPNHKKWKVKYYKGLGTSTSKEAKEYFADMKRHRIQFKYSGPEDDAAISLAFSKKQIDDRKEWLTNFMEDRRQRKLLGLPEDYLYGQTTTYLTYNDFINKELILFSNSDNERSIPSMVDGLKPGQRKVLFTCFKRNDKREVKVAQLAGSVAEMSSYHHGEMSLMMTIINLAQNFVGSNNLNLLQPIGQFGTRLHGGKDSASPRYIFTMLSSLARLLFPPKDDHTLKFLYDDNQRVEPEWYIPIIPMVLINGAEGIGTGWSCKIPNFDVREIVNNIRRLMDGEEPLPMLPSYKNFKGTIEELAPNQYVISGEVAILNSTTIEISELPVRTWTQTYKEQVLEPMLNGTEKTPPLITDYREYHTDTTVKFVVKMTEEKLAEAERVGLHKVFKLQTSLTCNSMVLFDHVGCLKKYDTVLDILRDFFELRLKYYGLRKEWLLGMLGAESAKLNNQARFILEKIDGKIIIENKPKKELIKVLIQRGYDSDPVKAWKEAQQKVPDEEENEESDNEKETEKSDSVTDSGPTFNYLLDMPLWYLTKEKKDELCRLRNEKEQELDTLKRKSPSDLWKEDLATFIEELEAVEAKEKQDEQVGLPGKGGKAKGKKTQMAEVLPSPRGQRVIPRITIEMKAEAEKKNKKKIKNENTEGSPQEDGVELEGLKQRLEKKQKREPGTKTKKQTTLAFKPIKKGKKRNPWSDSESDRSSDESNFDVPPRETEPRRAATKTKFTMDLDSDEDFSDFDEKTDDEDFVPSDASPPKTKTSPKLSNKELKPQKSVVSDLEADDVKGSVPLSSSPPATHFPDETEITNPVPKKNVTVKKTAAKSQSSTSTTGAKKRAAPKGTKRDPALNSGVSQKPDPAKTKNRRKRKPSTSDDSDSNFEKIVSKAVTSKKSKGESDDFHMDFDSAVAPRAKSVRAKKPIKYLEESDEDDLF

For `CC1=Cc2nc(C)cc3cc(OC(=O)c4ccc(F)cc4)cc(c23)O1`, the Activity (BT-474 [1]) was “inactive”, the Activity (ChaGo) was “inactive” and the Activity (SW-620 [2]) was “inactive”. For the same compound, the Activity (HepG2 [3]) was “inactive”, the Activity (KATO III cell) was “inactive” and the Activity (Ca-Ski) was “inactive”.
For `CCCCC(=O)Oc1cc2c3c(nc(C)cc3c1)C=C(C)O2`, the Activity (BT-474 [1]) was “inactive”, the Activity (ChaGo) was “inactive” and the Activity (SW-620 [2]) was “inactive”. The Activity (HepG2 [3]) was “inactive”, the Activity (KATO III cell) was “inactive” and the Activity (Ca-Ski) was “inactive”.
With `CC1=Cc2nc(C)cc3cc(OC(=O)c4ccc([N+](=O)[O-])cc4)cc(c23)O1` the Activity (BT-474 [1]) was “inactive”, the Activity (ChaGo) was “inactive” and the Activity (SW-620 [2]) was “inactive”. The Activity (HepG2 [3]) was “inactive”, the Activity (KATO III cell) was “inactive” and the Activity (Ca-Ski) was “inactive”.
In the case of `CN(C)CCN1C(=O)c2cccc3cc(N)cc(c23)C1=O` [AMONAFIDE], the IC50 (BT-474 [4]) is reported as 37.8 µM, the IC50 [5] is reported as 1.05 µM and the IC50 (SW-620 [6]) is reported as 0.32 µM. It also gave an IC50 (HepG2 [7]) of 1.71 µM, an IC50 [8] of 9.24 µM and an IC50 [9] of 9.96 µM. For the same compound, the Activity (WI-38) was “Toxic”, the Tm (Calf thymus DNA [10]) was 78.9 °C and the ΔTm (Calf thymus DNA [11]) was 8.2 °C. It also gave an inhibition [12] of 61.8%.
With `CC1=Cc2nc(C)cc3cc(OC(=O)CCCBr)cc(c23)O1` the Activity (BT-474 [1]) was “inactive”, the Activity (ChaGo) was “inactive” and the Activity (SW-620 [2]) was “inactive”. For the same compound, the Activity (HepG2 [3]) was “inactive”, the Activity (KATO III cell) was “inactive” and the Activity (Ca-Ski) was “inactive”.
With `CC1=Cc2nc(C)cc3cc(OC(=O)c4ccc(C)cc4)cc(c23)O1` the Activity (BT-474 [1]) was “inactive”, the Activity (ChaGo) was “inactive” and the Activity (SW-620 [2]) was “inactive”. For the same compound, the Activity (HepG2 [3]) was “inactive”, the Activity (KATO III cell) was “inactive” and the Activity (Ca-Ski) was “inactive”.
`CC1=Cc2nc(C)cc3cc(OCCOCCO)cc(c23)O1` gave an IC50 (HepG2 [7]) of 29.8 µM, an IC50 [8] of 10.1 µM and a viability at 100 µM (BT-474 [1]) of over 20%. For the same compound, the viability at 100 µM [13] was over 20%, the viability at 100 µM (SW-620 [2]) was over 20% and the viability at 100 µM [14] was over 20%. The Activity (WI-38) was “Non-toxic”, the Tm (Calf thymus DNA [10]) was 75.7 °C and the ΔTm (Calf thymus DNA [11]) was 4.8 °C. For the same compound, the KSV (Bos taurus [15]) was 4.3 ×10³ /M and the inhibition [12] was “inactive”.
Compound `CC1=Cc2nc(C)cc3cc(O)cc(c23)O1` [CASSIARIN A] has a viability at 100 µM (BT-474 [1]) of over 20%, a viability at 100 µM [13] of over 20% and a viability at 100 µM (SW-620 [2]) of over 20%. For the same compound, the viability at 100 µM (HepG2 [3]) was over 20%, the viability at 100 µM [16] was over 20% and the viability at 100 µM [14] was over 20%. The Tm (Calf thymus DNA [10]) was 70.7 °C.
`CC1=Cc2nc(C)cc3cc(OCCN(C)C)cc(c23)O1` showed an IC50 [5] of 29.5 µM, an IC50 (SW-620 [6]) of 9.85 µM and an IC50 (HepG2 [7]) of 10.1 µM. It also gave an IC50 [8] of 9.82 µM, an IC50 [9] of 30.2 µM and a viability at 100 µM (BT-474 [1]) of over 20%. For the same compound, the Activity (WI-38) was “Non-toxic”, the Tm (Calf thymus DNA [10]) was over 86 °C and the ΔTm (Calf thymus DNA [11]) was over 15.3 °C. It also gave a KSV (Bos taurus [15]) of 2.1 ×10⁴ /M, a Kapp (Bos taurus [17]) of 2.1 ×10⁶ /M and an inhibition [12] of 30.1%.
For `CCCC(=O)Oc1cc2c3c(nc(C)cc3c1)C=C(C)O2`, the Activity (BT-474 [1]) was “inactive”, the Activity (ChaGo) was “inactive” and the Activity (SW-620 [2]) was “inactive”. The Activity (HepG2 [3]) was “inactive”, the Activity (KATO III cell) was “inactive” and the Activity (Ca-Ski) was “inactive”.
For `CC1=Cc2nc(C)cc3cc(O[Se]c4ccccc4)cc(c23)O1`, the IC50 [9] was 29.7 µM, the viability at 100 µM (BT-474 [1]) was over 20% and the viability at 100 µM [13] was over 20%. The viability at 100 µM (SW-620 [2]) was over 20%, the viability at 100 µM (HepG2 [3]) was over 20% and the viability at 100 µM [16] was over 20%. The Activity (WI-38) was “Non-toxic”, the Tm (Calf thymus DNA [10]) was 70 °C and the inhibition [12] was over 95%. It also gave an inhibition [18] of 31.5%, an inhibition [19] of 75.7% and an inhibition [20] of 95.7%.
In the case of `CC1=Cc2nc(C)cc3cc(OCCO)cc(c23)O1`, the Activity (BT-474 [1]) is reported as “inactive”, the Activity (ChaGo) is reported as “inactive” and the Activity (SW-620 [2]) is reported as “inactive”. The Activity (HepG2 [3]) was “inactive”, the Activity (KATO III cell) was “inactive” and the Activity (Ca-Ski) was “inactive”.
With `CCC(=O)Oc1cc2c3c(nc(C)cc3c1)C=C(C)O2` the Activity (BT-474 [1]) was “inactive”, the Activity (ChaGo) was “inactive” and the Activity (SW-620 [2]) was “inactive”. For the same compound, the Activity (HepG2 [3]) was “inactive”, the Activity (KATO III cell) was “inactive” and the Activity (Ca-Ski) was “inactive”.
For `CC1=Cc2nc(C)cc3cc(OC(=O)c4ccc(Cl)cc4)cc(c23)O1`, the Activity (BT-474 [1]) was “inactive”, the Activity (ChaGo) was “inactive” and the Activity (SW-620 [2]) was “inactive”. For the same compound, the Activity (HepG2 [3]) was “inactive”, the Activity (KATO III cell) was “inactive” and the Activity (Ca-Ski) was “inactive”.
